Source: US7504415B2, “Therapeutic agent for glomerular disease” (Kowa Co., Ltd., priority 2001, dated 2009)

Tests used:
Human mensagial cells = assay: Mensagial matrix (PIP) production inhibition test, TGF-β1-stimulated, ELISA; type: cell-based; details: TGF-β1 10 ng/mL stimulation, 72 hours culture, PIP by ELISA, read-out: PIP production inhibitory activity (IC50)
Description: (1) Culture and Storage of Human Mensagial Cells
Human mensagial cells (normal human mensagial cells, CryoNHMC, product of Sanko Junyaku Co., Ltd.) were cultured in MsGM medium (15 mL/flask) by use of two 75-cm^2 flasks (430720, CORNING). The medium was replaced with fresh medium every 2 to 3 days. Subsequently, the culture was scaled up to a 225-cm^2 flask (3000, COSTER) level, and three vials of passage 5 and 27 vials of passage 6 were prepared at a cell count of 5×10^6 cells/Cell Banker 1 mL/vial (430659, CORNING). The thus-cultured cell samples were stored in a container cooled by liquid nitrogen.
(2) Determination of Mansagial Matrix Production Inhibitory Activity
Cryopreserved human mensagial cells of passage 6 were revived and sown in a medium placed in a 75-cm^2 flask. The medium was replaced the next day, and incubation was continued for three more days. The thus-cultured cells were treated with 0.25% trypsin-0.02% EDTA. […] After completion of culturing, the PIP level of each culture liquid was determined through ELISA by use of a PIP determination kit (product of TAKARA). The percent inhibition (%) was calculated in accordance with the following equation, and the PIP production inhibitory activity (IC50 value) was derived from the percent inhibition. […]

[1] = tested on: progressive anti-Thy-1 nephritic rat; assay: Pharmacological test using progressive anti-Thy-1 nephritic rats; type: in vivo; details: 20 mg/kg perorally once/day, 10 weeks
Description: (1) Wistar female rats (5 weeks old, purchased from Japan SLC Co., Ltd.) were quarantined and acclimatized for four days, and used for the test. First, the right kidney of each rat was removed through flank incision under anesthesia with pentobarbital. Two weeks after removal of the right kidney, an anti-Thy-1 antibody (anti-mesangial-cell antibody/monoclonal antibody 1-22-3; purchased from Panafarm Laboratories Co., Ltd.) was intravenously administered (500 μg/rat) into the tail vein, whereby progressive anti-Thy-1 nephritis was induced. Immediately thereafter, compound A which had been suspended in an aqueous 0.5% sodium carboxymethyl cellulose solution was perorally administered via a peroral probe to each rat in a forced and continuous manner (20 mg/kg body weight, once/day, 10 weeks). After completion of 10 weeks' administration of compound A, urine was taken from each rat for 18 hours in a metabolic cage (Sugiyama Gen Co., Ltd.), and the total amount of protein excreted into the urine was determined.
(2) After completion of the urine analysis, the left kidney was extirpated from each rat, fixed in formalin, and embedded with paraffin. A thin slice obtained from the thus-treated kidney was stained with hematoxylin and eosin (HE), and observed under a stereoscopic microscope. […] The ratio was evaluated on the basis of the following classification. […]

[2] = tested on: renal failure model (5/6 nephrectomized) rats; assay: Renal failure model (5/6 nephrectomized) rats; type: in vivo, rat; details: 15 mg/kg perorally once a day
Text: Male Wistar rats (10 weeks old, 300 to 350 g, purchased from Japan SLC Co., Ltd.) were anesthetized with pentobarbital, and the right kidney of each rat was extirpated. Subsequently, the left kidney was exposed. Under a stereoscopic microscope, two of the left renal artery branches (generally, one renal artery is separated into three branches) were ligated and one central branch was left intact, to thereby provide a 5/6 nephrectomized rat. When a renal artery branch is ligated, a portion controlled by the branch falls into ischemia, and such ischemic renal portion can be visually detected. The thus-produced renal failure models were evaluated in terms of increase in blood urea nitrogen level (BUN) one day after the ligation.
The rats were divided into three groups such that the BUN level (one day after ligation) of the groups were equalized, and compound A was administered to each rat of the groups. The groups consisted of a normal rat group (N=5); a 5/6 nephphrectomized and drug-untreated group (control: N=8); and a 5/6 nephrectomized and compound-A-administered group (15 mg/kg: N=8). […] The (total protein)/creatinine ratio (UP/Ucr) in a urine sample and the BUN level were determined on days 7, 14, 21, 28, and 35 after ligation.

Slc: Wistar rats = assay: Acute toxicity test; type: in vivo, rat
Description: Slc: Wistar rats (5 male rats and 5 female rats, 6 weeks old, purchased from Japan SLC Co., Ltd.) were subjected to fasting overnight. After fasting, compound A which had been suspended in an aqueous 0.5% sodium carboxymethyl cellulose solution was perorally administered in a forced manner to each male rat (500 mg/kg) and each female rat (250 mg/kg).

## monocalcium (+)-bis[(3R, 5S, 6E)-7-[2-cyclopropyl-4-(4-fluorophenyl)-3-quinolyl]-3,5-dihydroxy-6-heptenoate] [compound A]
Human mensagial cells
  IC50: 22.4 µM
[1]; FIG. 1
  total amount of protein excreted into urine (18 hours): significantly lowered
[1]; FIG. 2
  lesions occurring in the malpighian tubes and stroma (tubulointerstitial damage score, HE staining): significantly inhibited
[2]; after week 4, FIG. 4
  blood urea nitrogen (BUN) level: significant decrease
[2]; weeks 7 and 8 after administration, vs drug-untreated group, FIG. 3
  (total protein)/creatinine ratio (UP/Ucr) in urine: significantly decreases
Slc: Wistar rats; female rats, 250 mg/kg single peroral dose after overnight fasting
  death during observation period of 14 days: no case of death
Slc: Wistar rats; male rats, 500 mg/kg single peroral dose after overnight fasting
  death during observation period of 14 days: no case of death
